{"source": "paper PMC9311059", "about": "“P‐Glycoprotein and Breast Cancer Resistance Protein Transporter Inhibition by Cyclosporine and Quinidine on the Pharmacokinetics of Oral Rimegepant in Healthy Subjects” (Clinical Pharmacology in Drug Development, 2022)", "key": {"[1]": {"conditions": "cited from earlier work"}, "[2]": {"assay": "Part 1: pharmacokinetics of rimegepant 75 mg ODT alone or coadministered with cyclosporine 200 mg, 2-way crossover", "experimental": "This phase 1, open‐label, randomized, single‐dose, 2‐way crossover, 2‐part, drug‐drug interaction study was conducted at a single center (Syneos Health, Québec, Canada). Subjects were screened within 28 days preceding administration of study medication. In part 1, fasted subjects were randomly assigned to a single dose of rimegepant 75 mg ODT or a single dose of rimegepant 75 mg ODT coadministered with cyclosporine 200 mg (2 × 100‐mg capsules). […] Following the completion of part 1, an interim PK analysis and review of data were performed. Part 2 was to be conducted only if the rimegepant AUC from time 0 to infinity (AUC0‐inf) ratio of geometric means in part 1 was increased by >50% when coadministered with cyclosporine. In part 2, fasted subjects were randomly assigned to a single dose of rimegepant 75 mg ODT or a single dose of rimegepant 75 mg ODT coadministered with quinidine 600 mg (2 × 300‐mg tablets).\nIn part 1, subjects received 1 of the following treatments under fasting conditions: 1 oral dose of rimegepant 75 mg ODT (Catalent Pharma Solutions, Swindon, UK) or 1 oral dose of rimegepant 75 mg ODT coadministered with cyclosporine 200 mg (Novartis Pharmaceuticals Canada Inc., Dorval, Quebec, Canada). In part 2, subjects received 1 of the following treatments under fasting conditions: 1 oral dose of rimegepant 75 mg ODT alone or 1 oral dose of rimegepant 75 mg ODT coadministered with quinidine 600 mg (Sandoz Inc., West Princeton, New Jersey). In parts 1 and 2, the interval between treatments could not exceed 2 minutes.\nFor each treatment, subjects were confined from the morning of day −1 until after the 24‐hour postdose blood draw on day 2. Subjects returned for all subsequent blood draws. No food was allowed from at least 10 hours before dosing until at least 4 hours after dosing. Meals were standardized and similar in composition between periods. Except for water given with cyclosporine and quinidine, no fluids were allowed from 1 hour before dosing until 1 hour after dosing. Water was provided ad libitum at all other times. […] When appropriate, subjects were accompanied by a staff member while walking.\nIn each period, 20 blood samples for PK assessment were collected at the following time points: before dosing; 5, 10, 20, 30, 40, and 50 minutes after dosing; and 1, 1.5, 2, 2.5, 3, 4, 5, 6, 8, 12, 24 (day 2), 48 (day 3), and 72 (day 4) hours after dosing. […] Plasma samples were assayed for rimegepant using ultra‐performance liquid chromatography with tandem mass spectrometry detection (LC‐MS/MS). The quantifiable range was 10 to 5000 ng/mL. Plasma samples containing human ethylenediaminetetraacetic acid (EDTA) K2 plasma as an anticoagulant were processed using automated protein precipitation before LC‐MS/MS analysis. The internal standard was rimegepant‐^13C2d4. The validation was performed using an API 5000 LC/MS/MS system with Analyst software, version 1.6.3 (SCIEX, Framingham, Massachusetts). The pump flow was isocratic, with a flow rate set at 0.600 mL/min. The column was an Acquity UPLC BEH C18, 50×2.1 mm, 1.7 μm (Waters Corporation, Framingham, Massachusetts), which was maintained at a temperature of 60°C and contained Milli‐Q type water/acetonitrile with ammonium acetate and acetic acid. The mass‐to‐charge ratios monitored for rimegepant were 535.4 for the precursor ion and 256.1 for the product ion, whereas for the internal standard, they were 541.4 for the precursor ion and 256 for the product ion. […] Incurred sample reanalysis was carried out on ≈10% of randomly selected samples.\nThe effects of cyclosporine (part 1) or quinidine (part 2) on the single‐dose PK of rimegepant were evaluated using general linear model procedures in SAS (SAS Institute, Cary, North Carolina)."}, "[3]": {"parameters": "method as in PMID 23965396", "conditions": "single and 2‐week multiple daily oral doses up to 600 mg; cited from earlier work"}, "BCRP": {"test_system": "BCRP", "parameters": "method as in ref 7 = [7]; PMID 32058712; doi:10.1021/acs.jmedchem.9b01810; 7 Dubowchik GM , Conway CM , Xin AW . Blocking the CGRP pathway for acute and preventive treatment of migraine: the evolution of success . J Med Chem . 2020; 63 ( 13 ): 6600 ‐ 6623 . 32058712 10.1021", "conditions": "in vitro; cited from earlier work"}, "[4]": {"assay": "Safety assessment (adverse events, ECG, vital signs, S-STS) in parts 1 and 2", "procedure": "Safety was assessed using adverse events (AEs) that occurred from signing informed consent through 4 days after the last study drug administration, physical examination, body measurements, and the S‐STS. Safety was also assessed through vital signs (blood pressure, heart rate, respiratory rate, oral temperature), and electrocardiography. In part 2, cardiac telemetry was recorded continuously from ≈10 hours before dosing until 6 hours after dosing in each period (8 hours after dosing in subjects receiving quinidine with an increased QT interval at the 6‐hour assessment).\nSafety laboratory assessments included a QuantiFERON‐TB test (Hilden, Germany); pregnancy tests (urine and serum); drug, alcohol, and cotinine screen; hematology; biochemistry; coagulation (in case of abnormal liver function tests); serology; and urinalysis.\nSafety data were summarized but not subjected to inferential analysis."}, "CYP3A4": {"test_system": "CYP3A4", "parameters": "method as in ref 6, 7 = [6]; 6 PubChem [Internet]. Bethesda (MD): National Library of Medicine (US), National Center for Biotechnology Information; 2004‐. PubChem Compound Summary for CID 51049968, Rimegepant. https://pubchem.ncb || [7]; PMID 32058712; doi:10.1021/acs.jmedchem.9b01810; 7 Dubowchik GM , Conway CM , Xin AW . Blocking the CGRP pathway for acute and preventive treatment of migraine: the evolution of success . J Med Chem . 2020; 63 ( 13 ): 6600 ‐ 6623 . 32058712 10.1021", "conditions": "in vitro, human liver microsomes and recombinant human CYP enzymes; cited from earlier work"}, "[5]": {"conditions": "by cyclosporine 200 mg, single dose rimegepant 75 mg ODT, vs rimegepant alone"}, "[6]": {"conditions": "coadministration with cyclosporine 200 mg, rimegepant 75 mg"}, "[7]": {"conditions": "strong P‐gp inhibitors (cyclosporine, quinidine), parts 1 and 2"}, "[8]": {"conditions": "parts 1 and 2, rimegepant alone or coadministered"}}, "note": "Several values for one entry are separate records, joined by “and”; a condition that tells them apart may be missing. Equal values may be shown once. Read-outs that look alike come from different tables or passages of the source."}
{"smiles": "N[C@@H]1c2cccnc2[C@H](OC(=O)N2CCC(n3c(=O)[nH]c4ncccc43)CC2)CC[C@H]1c1cccc(F)c1F", "note": "[Rimegepant]", "values": [{"measurement": "absolute oral bioavailability", "setting": "[1]; rimegepant ODT", "value": "≈ 64%"}, {"measurement": "median time to maximum plasma concentration (tmax)", "setting": "[1]; sublingual administration of rimegepant ODT, fasting conditions", "value": 1.5, "unit": "h"}, {"measurement": "increase in rimegepant AUC0‐inf", "setting": "[2]; [5]", "value": "60.1% and 60%"}, {"measurement": "increase in rimegepant Cmax", "setting": "[2]; [5]", "value": 41, "unit": "%"}, {"measurement": "rimegepant AUC0‐inf geometric mean ratio (90% CI) versus rimegepant alone", "setting": "[2]; [6]", "value": "1.6 (1.49‐1.72)"}, {"measurement": "rimegepant Cmax geometric mean ratio (90% CI) versus rimegepant alone", "setting": "[2]; [6]", "value": "1.41 (1.27‐1.57)"}, {"measurement": "Tmax", "setting": "[2]; human, in vivo, po, 75 mg", "value": 2, "unit": "h"}, {"measurement": "Tmax", "setting": "[2]; human, plasma, po", "value": 2.5, "unit": "h"}, {"measurement": "Tmax", "setting": "[2]; human, plasma, po, 75 mg", "value": 1.99, "unit": "h"}, {"measurement": "half-life", "setting": "[2]; human, plasma, po, 75 mg", "value": 455, "unit": "min"}, {"measurement": "AUC", "setting": "[2]; human, plasma, po, 75 mg, AUC0‐inf, arithmetic mean (percent coefficient of variation), part 1, rimegepant ODT 75 mg alone, single oral dose, N 15", "value": 4270, "unit": "ng·h/mL"}, {"measurement": "AUC", "setting": "[2]; human, plasma, po, 75 mg, AUC0‐inf, geometric least squares mean, part 1, rimegepant 75 mg ODT alone, single oral dose, fasted, N = 15", "value": 4110, "unit": "ng·h/mL"}, {"measurement": "AUC", "setting": "[2]; human, plasma, po, 75 mg, AUC0‐t, arithmetic mean (percent coefficient of variation), part 1, rimegepant ODT 75 mg alone, single oral dose, N 15", "value": 4250, "unit": "ng·h/mL"}, {"measurement": "AUC", "setting": "[2]; human, plasma, po, 75 mg, AUC0‐t, geometric least squares mean, part 1, rimegepant 75 mg ODT alone, single oral dose, fasted, N = 15", "value": 4090, "unit": "ng·h/mL"}, {"measurement": "Cmax", "setting": "[2]; human, plasma, po, 75 mg, arithmetic mean (percent coefficient of variation), part 1, rimegepant ODT 75 mg alone, single oral dose, N 15", "value": 862, "unit": "ng/mL"}, {"measurement": "Cmax", "setting": "[2]; human, plasma, po, 75 mg, geometric least squares mean, part 1, rimegepant 75 mg ODT alone, single oral dose, fasted, N = 15", "value": 824, "unit": "ng/mL"}, {"measurement": "CL/F, arithmetic mean (percent coefficient of variation)", "setting": "[2]; part 1, rimegepant ODT 75 mg alone, single oral dose, N 15", "value": "19.26 (31.84) L/h"}, {"measurement": "difference in geometric mean t1/2el between treatments", "setting": "[2]; part 1, rimegepant with cyclosporine vs rimegepant alone", "value": "≤ 5", "unit": "%"}, {"measurement": "increase in rimegepant exposure by strong P‐gp inhibitors, lower bound", "setting": "[2]; [7]", "value": "> 50", "unit": "%"}, {"measurement": "increase in rimegepant exposure by strong P‐gp inhibitors, upper bound", "setting": "[2]; [7]", "value": "< 2", "unit": "fold"}, {"measurement": "tolerability", "setting": "[3]", "value": "well tolerated"}, {"measurement": "substrate of BCRP transporter", "setting": "BCRP", "value": "substrate"}, {"measurement": "subjects discontinued due to AEs", "setting": "[4]; part 2, rimegepant group: sinus tachycardia, rimegepant‐quinidine group: false‐positive SARS‐CoV‐2 test", "value": 1, "unit": "subjects"}, {"measurement": "nausea (TEAE), number of subjects", "setting": "[4]; parts 1 and 2", "value": 1, "unit": "subjects"}, {"measurement": "serious AEs", "setting": "[4]; [8]", "value": "No serious AEs were reported"}, {"measurement": "severity of TEAEs", "setting": "[4]; [8]", "value": "mild or moderate"}, {"measurement": "tolerability", "setting": "[4]; single oral dose rimegepant 75 mg ODT alone or coadministered with cyclosporine or quinidine, parts 1 and 2", "value": "well tolerated and safe"}, {"measurement": "metabolising enzyme", "setting": "CYP3A4", "value": "primarily metabolized by CYP3A4"}]}
